Results taken from paper PMC9765439, “Systems-Wide Dissection of Organic Acid Assimilation in Pseudomonas aeruginosa Reveals a Novel Path To Underground Metabolism” (mBio, 2022).

How the values were obtained:
[1] = target: T1, GltAPa (citrate synthase) (Pseudomonas aeruginosa, UniProt P14165); assay: DTNB (TNB release) spectrophotometric assay, […] nm; type: biochemical; details: 0.5 mM oxaloacetate; 50 mM HEPES pH 7.5, 0.1 M KCl, 0.54 M glycerol; 37 °C
T1 construct: gene gltA; full-length ORF, 429 aa; pET-19m, N-terminal TEV-cleavable His6 tag, cut; E. coli host; hexamer in asymmetric unit
T1 sequence (P14165 1-428): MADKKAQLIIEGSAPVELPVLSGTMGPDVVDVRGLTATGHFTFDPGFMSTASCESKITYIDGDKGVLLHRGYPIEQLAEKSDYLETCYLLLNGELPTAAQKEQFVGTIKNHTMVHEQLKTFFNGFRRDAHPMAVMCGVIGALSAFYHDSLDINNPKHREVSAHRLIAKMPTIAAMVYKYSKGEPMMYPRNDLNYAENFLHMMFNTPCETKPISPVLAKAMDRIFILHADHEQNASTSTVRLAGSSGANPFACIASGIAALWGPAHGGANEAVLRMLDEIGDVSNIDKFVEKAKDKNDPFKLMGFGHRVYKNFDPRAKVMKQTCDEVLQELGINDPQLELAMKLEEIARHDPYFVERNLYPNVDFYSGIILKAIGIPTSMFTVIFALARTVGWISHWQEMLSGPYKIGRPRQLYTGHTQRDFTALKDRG

[2] = target: T2, PrpCPa (2-methylcitrate synthase, 2-MCS) (Pseudomonas aeruginosa, UniProt Q9I5E3); assay: X-ray crystallography; type: binding; details: 2.5 mM oxaloacetate in crystallisation, Bis-Tris pH 5.5; active site of chain D only
T2 construct: gene prpC; pET-19m, N-terminal TEV-cleavable His6 tag, cut; E. coli host; homodimer
T2 sequence (Q9I5E3 1-375): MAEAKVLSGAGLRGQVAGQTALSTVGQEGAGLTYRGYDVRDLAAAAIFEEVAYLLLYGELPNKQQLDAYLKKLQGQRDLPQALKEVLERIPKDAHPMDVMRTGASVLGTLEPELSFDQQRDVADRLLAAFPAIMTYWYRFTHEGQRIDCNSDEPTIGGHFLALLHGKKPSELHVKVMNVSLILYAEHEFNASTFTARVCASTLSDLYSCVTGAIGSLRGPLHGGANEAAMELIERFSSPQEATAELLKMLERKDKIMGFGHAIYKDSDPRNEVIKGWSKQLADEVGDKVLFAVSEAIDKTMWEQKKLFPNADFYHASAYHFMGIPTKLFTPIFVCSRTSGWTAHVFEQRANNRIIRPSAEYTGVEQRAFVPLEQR

**Q.** Which “DTNB (TNB release) spectrophotometric assay, 412 nm” value [1] does the source give for CC(=O)SCCNC(=O)CCNC(=O)[C@H](O)C(C)(C)COP(=O)(O)OP(=O)(O)OC[C@H]1O[C@@H](n2cnc3c(N)ncnc32)[C@H](O)[C@@H]1OP(=O)(O)O [acetyl-CoA] here?
**A.** Purified GltAPa is a citrate synthase with no detectable 2-methylcitrate synthase activity.

**Q.** Which X-ray crystallography [2] does the source give for O=C(O)CC(=O)C(=O)O [oxaloacetate] here?
**A.** Crystal structure of oxaloacetate-bound PrpCPa represented in cartoon (PDB: 6S87).
